Assay results from patent US20020193351A1, “Fungicidal and bactericidal compositions for plants containing phosphonate and phosphate salts, metal chelates, and derivatives thereof” (priority 1996, published 2002).
Like-named read-outs stand apart in the source and are kept apart here.

What was measured:
[1] = tested on: Citrus Greasy Spot perithecia; experiment: Citrus Greasy Spot perithecia count on Valencia orange leaves (Example 2); assay type: in vivo, Mycosphaerella citri; conditions: for #PERITHECIA (Number of Perithecia Per 5 MM Field at 2.5×, Mean of Three Observations): applied mid-July, leaves harvested approximately 4 months later
Description: In the present Example, fungicides were again tested on “Valencia” oranges except the effect of various fungicides on perithecia was tested.
Twenty mature leaves (from the spring flush) per replicate were harvested approximately 4 months later and placed under greenhouse conditions and alternately wetted and dried to simulate natural defoliation and weathering.
These conditions, in turn, cause the fungus to sporulate by the formation of perithecia (spore production body of fungus). The […] were counted as a means of measuring the fungicidal activity of the treatments.
Number of Perithecia Per 5 MM Field at 2.5×—Mean of Three Observations
As used herein, a, b, c, and ab indicate statistical significance using Duncan's multiple range test. In interpreting the data, a different notation, e.g. b versus ab, means there was a statistically significant difference in the results. A difference in data of samples with the same letter notation was not statistically significant.

[2] = tested on: Oak Leaf Blister (Taphrina Caerulescens); experiment: Oak Leaf Blister control on laurel oaks (Example 5); assay type: in vivo; conditions: for DISEASE INDEX: applications in July approximately 3 weeks apart, rated in August, index 1 = no disease to 5 = dead foliage
Text: Applications were made in July approximately 3 weeks apart and rated in August a month later. See data below.

[3] = tested on: plants; conditions: foliar applications; cited from earlier work
[4] = tested on: Phytophthora infestans (Genotype US-17, Matingtype A1); assay type: in vivo; conditions: tomato; 1% v/v; read seven days after inoculation
[5] = tested on: Phytophthora infestans (Genotype US-8, Matingtype A2); assay type: in vivo; conditions: for LESIONS PER PLANT / NO. INFECTED LEAFLETS PER PLANT / % LATE BLIGHT: potato, read seven days after inoculation; for % LATE BLIGHT: two treatments 7 days apart, inoculated 7 days later
[6] = tested on: Alternaria dauci; experiment: Carrot/Alternaria fungicide trial (Example 10); conditions: for AVERAGE % OF INFECTION 04/23/96 / AVERAGE % OF INFECTION 04/05/96: 8 applications; for AVERAGE % OF INFECTION 04/23/96: 25 days after last application; for AVERAGE % OF INFECTION 04/05/96: seven days after last treatment; for Alternaria control on carrots, verdict: Example 10, comment on the table
Description: In the present example, carrots were inoculated with the Alternaria fungus. The carrots were then treated with the below listed fungicidal compositions. Also a control test was conducted. The percentage of the fungicide in the solution is also listed below along with the results. Plot size for testing was a single row of 25 feet by 4 repetitions in an RCB design. The fungicide was applied eight (8) times with the carrots then examined for infection seven (7) days and twenty-five (25) days after the last fungicidal treatment.
PLOT SIZE: Single Row×25 ft.×4 reps in a RCB design. Application dates: 2/2, 9,15,22,3/8,14,22, and 28. Rated 4/5 and 4/23/96
NOTE: Second rating was 25 days after last fungicide application. Plots were inoculated with Alternaria dauci.

[7] = tested on: bacterial spots on pepper plants; assay type: in vivo; conditions: weekly applications; g AI/liter: copper+mancozeb 2+1, Cu-EDDHA 0.1, CGA-143268 1.0, other CGA compounds 0.25 and 0.5
[8] = tested on: Xanthomonas campestris; experiment: Xanthomonas leaf spot of croton Codiaeum variegatum (Example 9); assay type: in vivo; conditions: for AVERAGE % OF INFECTION: 3 weekly foliar applications after inoculation
Description: Croton plants inoculated with Xanthomonas were tested with various fungicides. […] AI/100 gal. and Kocide 101 at 7.4 lbs. AI/Acre (A) were applied as foliar applications to croton (Codiaeum variegatum) previously inoculated with Xanthomonas campestris a day earlier. Treatments were assigned in a RCB design and replicated 10 times with single pots. Treatments were applied 3 times on a weekly schedule and evaluated at 7 and 14 days following the last application. See data below.

[9] = tested on: Erwinia; experiment: Erwinia control on Hibiscus rooted cuttings, dip and spray (Example 7); assay type: in vivo, Erwinia chrysanthemi; conditions: for AVERAGE % INFECTION: dip, then foliar spray 7 days later
Description: A follow-up experiment to Example 6 was conducted on rooted cuttings which were dipped as they were removed from the propagation bed and foliarly sprayed 7 days later after being potted. […] Potted cuttings had not received any previous bactericide treatments prior to potting.

[10] = tested on: Erwinia chrysanthemi; experiment: Erwinia control on Hibiscus cuttings, foliar spray (Example 6); assay type: in vivo; conditions: for AVERAGE % INFECTION: rated one week later
Text: Treatments were allowed to dry for one hour and then placed in a commercial propagation bed under intermittent mist and rated for bacterial (Erwinia chrysanthemi) infection one week later.

[11] = 1 gal. (0.55 wt. % AI)/100 gallons
[12] = 1 gal. (0.53 wt. % AI)/100 gallons

What does the source list for `CC1COC(Cn2cncn2)(c2ccc(Oc3ccc(Cl)cc3)cc2Cl)O1` (stereo not shown) [Difenconazole, 1-2[2-[4-(4-chlorophenoxy)-2-chlorophenyl-(4-methyl-1,3-dioxolan-2-l)-methyl]]-1H-1 ,2,4-triazole, reference compound]?
#PERITHECIA (Number of Perithecia Per 5 MM Field at 2.5×, Mean of Three Observations) ([1]; rate 100 gm AI/100 gallons): 5.32 ab; #PERITHECIA (Number of Perithecia Per 5 MM Field at 2.5×, Mean of Three Observations) ([1]; rate 200 gm AI/100 gallons): 11.57 ab; DISEASE INDEX ([2]; 2 oz. product/100 gallons): 2.25

With `O=C([O-])CN(CCN(CC(=O)[O-])CC(=O)[O-])CC(=O)[O-].[Fe+3]` [Fe-EDTA, Fe-EDTA (ethylenediaminetetraacetic acid)] as the compound, how does the “Phytotoxicity rankings of Fe chelates” value [3] read?
Its value is “intermediate phytotoxic”.

Which “Phytotoxicity rankings of Fe chelates” value [3] does the source give for `O=C([O-])CN(CCO)CCN(CC(=O)[O-])CC(=O)[O-].[Fe+3]` [Fe-HEEDTA, Fe-HEEDTA (hydroxyethylethylenediaminetriacetic acid)] here?
Its value is “most phytotoxic”.

With `O=[PH]([O-])[O-].[K+].[K+]` [Sample K2HPO3] as the compound, how does the “LESIONS PER PLANT” value [4] read?
The value was 56.7.

What about the “NO. INFECTED LEAFLETS PER PLANT” value [4] of the same compound?
Its value is 21.5.

What about the “Potato late blight control, verdict” value ([5]; Example 11, comment on the table) of the same compound?
Its value is “good results in controlling the blight”.

And the “LESIONS PER PLANT” value ([5]; 1% v/v)?
Its value is 2.4.

And the “NO. INFECTED LEAFLETS PER PLANT” value ([5]; 1% v/v)?
Its value is 1.8.

What about the “% LATE BLIGHT” value ([5]; 1% v/v) of the same compound?
The value was 1.85%.

What about the “AVERAGE % OF INFECTION 04/23/96” value [6, 11] of the same compound?
The value was 28.8%.

What about the “AVERAGE % OF INFECTION 04/05/96” value [6, 11] of the same compound?
The value was 18.7%.

With `O=P([O-])([O-])O.[K+].[K+]` [Sample K2HPO4, dipotassium phosphate] as the compound, how does the “LESIONS PER PLANT” value [4] read?
Its value is 74.8.

What about the “NO. INFECTED LEAFLETS PER PLANT” value [4] of the same compound?
Its value is 36.5.

What about the “LESIONS PER PLANT” value ([5]; 1% v/v) of the same compound?
The value was 41.4.

What about the “NO. INFECTED LEAFLETS PER PLANT” value ([5]; 1% v/v) of the same compound?
The value was 31.1.

And the “% LATE BLIGHT” value ([5]; 1% v/v)?
Its value is 18.45%.

And the “AVERAGE % OF INFECTION 04/23/96” value [6, 12]?
Its value is 8.2%.

And the “AVERAGE % OF INFECTION 04/05/96” value [6, 12]?
The value was 6.9%.

For “Fe-DTPA (di-ethylenetriaminepentaacetic acid)”, which “Phytotoxicity rankings of Fe chelates” value [3] is on record?
The value was “less phytotoxic”.

Which “Perithecia reduction, verdict” value ([1]; Example 2, comment on the table) does the source give for “Sodium cupric ethylenediamine-di-o-hydroxyphenylacetic acid [Cu-EDDHA]” here?
The value was “good results”.

What about the “#PERITHECIA (Number of Perithecia Per 5 MM Field at 2.5×, Mean of Three Observations)” value ([1]; rate 0.2 lbs. AI/100 gallons) of the same compound?
Its value is 3.24 b.

And the “#PERITHECIA (Number of Perithecia Per 5 MM Field at 2.5×, Mean of Three Observations)” value ([1]; rate 0.4 lbs. AI/100 gallons)?
Its value is 5.93 ab.

What about the “Disease severity ranking 12 days after the last (eighth) application” value [7] of the same compound?
The value was “exhibited some control”.

And the “Disease severity ranking after four applications” value [7]?
Its value is “CGA-143268 which was equal to copper plus mancozeb and Cu-EDDHA in activity”.

And the “DISEASE INDEX” value ([2]; 8 oz. product/100 gallons)?
The value was 2.8.

And the “Oak leaf blister repression, verdict” value ([2]; Example 5, comment on the table)?
The value was “suitable disease repression”.

What about the “LESIONS PER PLANT” value ([5]; 0.2 lb. AI/acre) of the same compound?
The value was 35.3.

And the “NO. INFECTED LEAFLETS PER PLANT” value ([5]; 0.2 lb. AI/acre)?
The value was 26.9.

What about the “% LATE BLIGHT” value ([5]; 0.2 lb. AI/acre) of the same compound?
The value was 12.30%.

And the “AVERAGE % OF INFECTION” value ([8]; 26 ml (.2 lb.) AI/100 gallons)?
Its value is “.6%”.

What about the “AVERAGE % OF INFECTION” value ([8]; 52 ml (.4 lb.) AI/100 gallons) of the same compound?
Its value is 1.0%.

And the “Control of Xanthomonas leaf spot of Codiaeum” value ([8]; compared to inoculated and noninoculated controls, Cu-EDDHA at the lower rate)?
The value was “control equal to the noninoculated control treatment”.

And the “AVERAGE % INFECTION” value ([9]; 0.2 LB. AI/100 gallons)?
Its value is 19%.

And the “Control of Erwinia on Hibiscus, verdict” value ([9]; 0.2 lb. AI)?
The value was “excellent control”.

What about the “AVERAGE % INFECTION” value ([9]; 0.8 LB. AI/100 gallons) of the same compound?
The value was 32%.

And the “AVERAGE % OF INFECTION 04/23/96” value ([6]; 0.2 lb AI/100 gallons)?
The value was 11.6%.

What about the “AVERAGE % OF INFECTION 04/05/96” value ([6]; 0.2 lb AI/100 gallons) of the same compound?
The value was 8.8%.

And the “Alternaria control on carrots, verdict” value [6]?
Its value is “effectively limited percentage of fungicidal infection”.

And the “Control of Erwinia on Hibiscus, verdict” value ([10]; 0.2 lb. AI)?
The value was “excellent control”.

And the “AVERAGE % INFECTION” value ([10]; 0.2 lb. AI Cu/100 gallons foliar spray)?
Its value is 6%.

What about the “AVERAGE % INFECTION” value ([10]; 0.4 lb. AI Cu/100 gallons foliar spray) of the same compound?
The value was 8%.

Which “AVERAGE % OF INFECTION 04/23/96” value ([6]; 0.2 lb AI/100 gallons) does the source give for “iron ethylenediamine-di-o-hydroxyphenylacetic acid [Fe-EDDHA]” here?
The value was 12.9%.

What about the “AVERAGE % OF INFECTION 04/05/96” value ([6]; 0.2 lb AI/100 gallons) of the same compound?
The value was 12.7%.

And the “Alternaria control on carrots, verdict” value [6]?
The value was “effective fungicides”.
